# According to article PMC11351612, “Heteronuclear Complexes with Promising Anticancer Activity against Colon Cancer” (Biomedicines, 2024):
# Where two headings read alike, the source gives them in different places.
# How the values were obtained:
# [1] = Distribution coefficient (logP7.4), n-octanol-water shake-flask; assay type: physicochemical; settings: n-octanol / buffered saline pH 7.4, shake-flask
# Experimental: Distribution coefficient (logP7.4). The n-octanol-water coefficients of the complexes were determined using a shake-flask method, as previously reported. Briefly, buffered-saline distilled water (100 mL, phosphate buffer [PO4^3−] = 10 mM, [NaCl] = 0.15 M, pH 7.4) and n-octanol (100 mL) were shaken together for 72 h to allow for saturation of both phases. Approximately 1 mg of the complexes was dissolved in 5 mL of the aqueous phase and 5 mL of the organic phase was added, mixing them for 10 min. The resulting emulsion was centrifuged to separate the phases. The concentration of the compounds in each phase was determined using UV-vis absorbance spectroscopy. The logP7.4 was defined as log{[compound(organic)]/[compound(aqueous)]}.
# Caco-2/TC7 cells = assay: MTT cell proliferation assay, Caco-2/TC7; assay type: cell-based, human; settings: 72 h, mean ± SE of at least three determinations
# Experimental: (§1) Cell culture. Human colon cancer Caco-2 cells (PD7 and TC7 clones) were kindly provided by Dr. Edith Brot-Laroche (Université Pierre et Marie Curie-Paris 6, UMR S 872, Les Cordeliers, Lyon, France) and grown in Dulbecco’s Modified Eagles medium (DMEM) (Gibco Invitrogen, Paisley, UK) supplemented with 20% foetal bovine serum (FBS), 1% non-essential amino acids, 1% streptomycin (1000 μg/mL), 1% penicillin (1000 μg/mL), and 1% amphotericin (250 U/mL). Caco-2 cells were maintained at 37 °C in a humidified atmosphere at 5% CO2.
# (§2) Cell proliferation assay. Cell proliferation was measured using the 3-(4,5-dimethyl-2-thiazoyl)-2,5-diphenyltetrazolium bromide (MTT) assay, as previously described. Caco-2/TC7 cells were seeded in a 96-well plate at a density of 4000 cells/well and grown for 24 h before being treated with each complex or DMSO (used as control). After 72 h of incubation with the complexes, 10 μL of MTT (5 mg/mL) were added and incubation was continued at 37 °C for 3 h. Inversion removed the medium and 100 μL of DMSO were added to each well. Absorbance at 560 nm, proportional to many living cells, was measured by spectrophotometry (SPECTROstar Nano, BMG LABTECH, Ortenberg, Germany) and converted into a percentage (%) of growth inhibition.
# (§3) The antiproliferative effects of the mononuclear and heteropolinuclear complexes were tested on two different Caco-2 cancer cell lines (PD7 and […]). […] Caco-2 cells of both PD7 and TC7 clones were exposed to increasing concentrations of the assayed compounds through dose–response/cell viability analysis. The results in terms of the IC50 parameter (Table 4) were obtained by using the MTT protocol.
# Caco-2/PD7 cells [2] = assay: MTT cell proliferation assay, Caco-2/PD7; assay type: cell-based, human; settings: MTT, 72 h; mean ± SE of at least three determinations
# Experimental: as §1, §2, §3
# [3] = system: pIRES2-EGFP (5308 pb) plasmid DNA; parameters: method as in PMID 24732792, PMID 3707609; settings: cited from earlier work
# Caco-2/PD7 cells [4] = assay: Annexin V/propidium iodide apoptosis assay, Caco-2/PD7; assay type: cell-based, human; settings: Caco-2/PD7, annexin V/PI
# Experimental: Study of cell death. After the appropriate incubation, cells were collected and stained with annexin V-FTIC, according to the manufacturer’s instructions. A negative control was prepared, containing unreacted cells to define the basal level of apoptotic and necrotic or dead cells. After incubation, the cells were transferred to flow-cytometry tubes and washed twice with temperate phosphate-buffered saline (PBS), suspended in 100 μL annexin V binding buffer (10 mM Hepes/NaOH, pH 7.4, 140 mM NaCl, 2.5 mM CaCl2), then 5 μL of annexin V-FITC, and 5 μL of PI was added to each 100 μL of cell suspension. After incubation for 15 min at room temperature in the dark, 400 μL of 1× annexin binding buffer was added and analysed by flow cytometry within one hour. The signal intensity was measured using a FACSARIA BD and analysed using FASCDIVA BD.
# This inhibition of apoptosis produces a fast growth and proliferation of cancerous cells. The population of early and late apoptotic cells increased to 35% after treatment with complex 1 in comparison with the vehicle-treated cells (12%). […] Additionally, the effect observed after treating the cells with a dosage equal to the IC50 concentration is time-dependent. […]
# ct-DNA (calf thymus DNA) [5] = system: ct-DNA (calf thymus DNA); parameters: method as in PMID 20926136; settings: cited from earlier work
# A2780/S = system: A2780/S; parameters: method as in PMID 19937669; settings: ovarian cancer cell line; cited from earlier work
# A2780/R = system: A2780/R; parameters: method as in PMID 19937669; settings: cisplatin-resistant ovarian cancer cell line; cited from earlier work
# [6] = system: pIRES2-EGFP (5308 pb) plasmid DNA; assay: Gel electrophoretic mobility of plasmid DNA; assay type: binding; settings: metal-to-base pair ratios 0.5, 1, 2; 0.8% agarose gel
# Experimental: Adducts with pIRES2-EGFP (5308 pb) plasmid DNA (Catalog #6029-1) were prepared by adding the required volume of a freshly prepared solution of metal complexes in MilliQ water. The concentration of pIRES2-EGFP in the reaction mixture was 117 ng/µL, and the complexes’ concentration was varied to give different metal-to-base pair stoichiometries (0.5, 1 and 2). The mobility of the metal complex-treated pIRES2-EGFP samples was analysed by gel electrophoresis on a 0.8% (w/v) agarose gel (Boehringer-Mannheim, Mannheim, Germany) at […] at 25 °C in Tris-acetate/EDTA buffer. The gel was stained for 30 min in […] (w/v) ethidium bromide and the bands were visualised with a UVP gel scanner.
# In addition, the interaction of both complexes with DNA was also studied by their ability to modify the electrophoretic mobility of the pIRES2-EGFP (5308 pb) plasmid DNA and compared to cisplatin (Figure 7).
# ct-DNA (calf thymus DNA) [7] = assay: ct-DNA binding constant by UV-vis titration (Benesi-Hildebrand); settings: complex 20 μM, ct-DNA 0-100 μM, Tris-HCl pH 7.2
# Experimental: A ctDNA solution was prepared at 1 mg/mL in tris (tris(hydroxymethyl)aminomethane)/HCl (0.1 M, pH 7.2). Then, the purity of the ctDNA was checked, recording its spectra and calculating the absorption ratio between 260 and 280 nm. This experiment also provides the means to calculate the concentration of ctDNA using the Beer–Lambert formula, with the extinction coefficient of 6600 M^−1cm^−1. Every experiment was corrected with a baseline of the buffer and the corresponding concentration of dimethylsulfoxide. The addition of DNA solution was performed in both assay and reference cuvettes. Then, the binding constant was calculated using the modified Benesi–Hildebrand equation. Kb is the binding constant, εf, εa, and εb are the extinction coefficients for the free compound, the apparent coefficient (calculated as the ratio of the absorbance and the concentration of the compound in the experiment), and the compound–DNA complex, respectively. […]
# The binding capabilities of [Cu{Au(Spy)(PTA)}2]PF6 (1) and [Au(Spy)(PTA)] were estimated towards […] by recording the electronic absorption spectra throughout their interaction. The absorbance measurements were performed by successive additions of a DNA stock solution (10, 20, 30, 40 up to 100 μL) which afforded the final concentration of ct-DNA (from 0 to 100 μM) while maintaining the concentration of the complexes (20 μM). […]
# [8] = system: differentiated Caco-2/PD7 cells; assay: Cell viability of differentiated (enterocyte-like) Caco-2/PD7 cells; assay type: cell-based, human
# Experimental: For cell viability studies of differentiated (enterocyte-like) cells, Caco-2/PD7 cells were seeded on 96-well plates at a density of 4 × 10^3 cells/well and incubated for approximately 10–15 days, changing the culture medium every 3 days, up to reaching confluence—the moment in which the cells were treated with the complexes at concentrations equal to their mean IC50 and 2 × IC50 values.
# It is well known that the Caco-2 cell line undergoes spontaneous differentiation into enterocytic-like cells when it reaches confluency. As a result, these cells become polarised, expressing apical and basolateral surfaces with established tight junctions. This allowed for the evaluation of the cytotoxic impact of the complexes on differentiated cells (acting as noncarcinogenic) and a comparison with the viability of undifferentiated cells. Thus, the toxicity of the two heteronuclear compounds has been studied by cell viability experiments by treatment of Caco-2/PD7 cells after differentiation with complexes 1 and 2 at the corresponding concentrations equivalent to IC50 and 2 × IC50 values for 72 h. The results expressed as the % of cell viability observed after treatment with the complexes (or 100% for non-treated control cells) are summarised in Figure S16 (Supplementary Materials). […] However, the cell viability is around 90% even when the cells are treated with double the IC50 concentration.
compound,measurement,setting,value
"CC(=O)OC[C@H]1O[C@@H]([S-])[C@H](OC(C)=O)[C@@H](OC(C)=O)[C@@H]1OC(C)=O.CCP(CC)CC.[Au+] [Auranofin, reference compound]",logP,[1],−2.53
same,IC50,Caco-2/TC7 cells,2100 ± 400 nM
same,IC50,Caco-2/PD7 cells [2],1800 ± 100 nM
same,Reactivity with DNA,[3],lack of reactivity
same,Cell death stage after treatment,Caco-2/PD7 cells [4],most cells being found in late-stage apoptosis and necrosis
"CC[n+]1c(-c2ccccc2)c2cc(N)ccc2c2ccc(N)cc21 [EB, ethidium bromide]",DNA binding constant Kb,ct-DNA (calf thymus DNA) [5],1.23(±0.07) × 10^5 M^−1
c1ccc([S][Au][P]23CN4CN(CN(C4)C2)C3)nc1 [[Au(Spy)(PTA)]],IC50,A2780/S,9600 nM
same,IC50,Caco-2/TC7 cells,2030 ± 20 nM
same,IC50,A2780/R,8200 nM
same,IC50,Caco-2/PD7 cells [2],2640 ± 250 nM
same,Effect on electrophoretic mobility of plasmid DNA,[6],does not affect the mobility
same,DNA binding constant Kb,ct-DNA (calf thymus DNA) [7],90600 M⁻¹
N.N.[Cl][Pt][Cl] [cisplatin],Effect on electrophoretic mobility of plasmid DNA,[6],greatly alters the electrophoretic mobility
[Zn{Au(PTA)(Spy)}2]Cl2 [compound 3],Cell viability of differentiated Caco-2 cells at 2 × IC50,"[8]; differentiated Caco-2/PD7, concentration = 2 × IC50, 72 h",93.18 ± 11.99%
same,Cell viability of differentiated Caco-2 cells at IC50,"[8]; differentiated Caco-2/PD7, concentration = IC50, 72 h",98.87 ± 21.63%
